# Measurements taken from US11117918B2, “Enzyme-directed immunostimulant and uses thereof” (Washington State University, priority 2016, dated 2021).
# Test system: RAW-Blue cells
# Assay: Inverse RAW-Blue assay after conversion by α-Mannosidase or AT3B-1 cells
# Assay type: cell-based
# Procedure: α-Mannosidase from Canavalia ensiformis (Jack bean) was used directly from the bottle to make a 1 U/mL stock solution in DPBS. Before administering the enzyme, the solution was filtered through a sterile 0.2 μm syringe filter to yield the working stock solution. 20 μL of the working stock solution was added to wells requiring exogenous enzyme to achieve a 0.1 U/mL α-Mannosidase concentration.
# For inverse RAW-Blue assays, pro-immunostimulant (12) was first converted to Imiquimod by either exogenous α-Mannosidase (0.1 U/well) or via AT3B-1 cell metabolism prior to RAW-Blue exposure. To accomplish this, pro-immunostimulant (12) and controls were dosed at a concentration 10× the desired concentration to be administered to immune cells. For instance, to investigate the effects on RAW-Blue stimulation of a 10 μM dose of pro-immunostimulant […] the following steps would be taken: First, in an optically clear bottomed 96-well plate, wells were prepared to contain 180 μL of complete AT3B-1 cell media (without doxorubicin) and either α-Mannosidase or the desired AT3B-1 cell density (cells were given a minimum of 60 mins to adhere). Second, a 100 μM dose of (12) in DPBS was administered to the wells and total well volumes were adjusted to 200 μL with complete cell media (without doxorubicin). Cells were incubated (37° C., 5% CO2) for 24-72 h. […]
structure (smiles),measurement,setting,value
CC(C)Cn1cnc2c(NC(=O)OCc3ccc(O[C@H]4O[C@H](CO)[C@@H](O)[C@H](O)[C@@H]4O)c([N+](=O)[O-])c3)nc3ccccc3c21 [compound 12],immunogenicity (RAW-Blue activation),"10 μM, exogenous α-Mannosidase and AT3B-1 driven conversion to Imiquimod",confers immunogenicity
same,RAW-Blue activity,without a conversion driver,abrogated activity
